This test concerns the target Platelet-derived growth factor receptor (Mus musculus). Kind of test: The cells were stimulated with PDGF (100 ng/mL) for 10 min at room temperature. Then the cell lysates were analyzed by SDS-PAGE and immunoblotting with anti-phosphotyrosine antibodies. Quantification of IC50 values was based on the intensity of the signal for autophosphorylated PDGF receptor. Titration was done using four to ei. (In general: A western blot detects proteins with antibodies after separation by electrophoresis.)

Each structure is given as a SMILES string.

One may read the IC50 as the concentration that gives 50% inhibition. A lower IC50 goes with greater potency. As for `O=C(c1cc2ccccc2[nH]1)c1cc2cc(OC(=O)C3CCC3)ccc2[nH]1` [2-(1H-indol-2-ylcarbonyl)-1H-indol-5-yl cyclobutanecarboxylate], the IC50 was determined as 5.7 µM.

As for `O=C(c1cc2ccccc2[nH]1)c1cc2cc(OCCCCI)ccc2[nH]1` [5-(4-Iodobutoxy-1H-2-indolyl)(1H-2-indolyl)methanone], half-maximal inhibition (pH 7.4) (IC50) required 12.5 µM.

For the setting “pH 7.4”, `O=C(c1cc2ccccc2[nH]1)c1cc2cc(OCc3ccccc3)ccc2[nH]1` [5-(benzyloxy)-2-(1H-indol-2-ylcarbonyl)-1H-indole] displayed an IC50 of 20 µM.

In turn, `COc1ccc2[nH]c(C(=O)c3cc4cc(OC)ccc4[nH]3)cc2c1` [Bis(5-methoxy-1H-2-indolyl)methanone] returned an IC50 (pH 7.4) of 20 µM.

Values taken from BindingDB's records for doi:10.1021/jm010988n (University of Regensburg, 2002).
